{
  "source": "ChEMBL document CHEMBL3885881",
  "about": "“DrugMatrix”",
  "species_on_record": "Rattus norvegicus",
  "experiment": "DrugMatrix - Regimen: Daily Repeat",
  "assay_type": "toxicity, organism-based, Sprague-Dawley",
  "design": "regimen Daily Repeat, gender Male, age 6-8 weeks",
  "settings": "in vivo, po, 0 mg/kg, route oral GAVAGE, dose level Control, […]; for ALANINE AMINOTRANSFERASE / ALBUMIN / ALKALINE PHOSPHATASE / ASPARTATE AMINOTRANSFERASE / BLOOD UREA NITROGEN / CARBON DIOXIDE / CHLORIDE / CHOLESTEROL / CREATINE PHOSPHOKINASE / CREATININE / GLUCOSE / LACTATE DEHYDROGENASE / LIPASE / POTASSIUM / SODIUM / TOTAL BILIRUBIN / TOTAL PROTEIN / URIC ACID: tissue Plasma",
  "key": {"[1]": {"settings": "120 h, tissue Blood, time 5 day"}},
  "data": [
    {"compound": "CCc1ccc(CCOc2ccc(CC3SC(=O)NC3=O)cc2)nc1", "note": "(stereo not drawn) [PIOGLITAZONE]", "values": [
      {"measurement": "ABSOLUTE BASOPHIL", "setting": "72 h, tissue Blood, time 3 day", "result": 0, "unit": "CELLS/uL"},
      {"measurement": "ABSOLUTE EOSINOPHIL", "setting": "72 h, tissue Blood, time 3 day", "result": 22.83, "unit": "CELLS/uL"},
      {"measurement": "ABSOLUTE LYMPHOCYTE", "setting": "72 h, tissue Blood, time 3 day", "result": 11213.33, "unit": "CELLS/uL"},
      {"measurement": "ABSOLUTE MONOCYTE", "setting": "72 h, tissue Blood, time 3 day", "result": 169.83, "unit": "CELLS/uL"},
      {"measurement": "ABSOLUTE SEGMENTED NEUTROPHIL", "setting": "72 h, tissue Blood, time 3 day", "result": 960.67, "unit": "CELLS/uL"},
      {"measurement": "BASOPHIL", "setting": "72 h, tissue Blood, time 3 day", "result": 0, "unit": "%"},
      {"measurement": "EOSINOPHIL", "setting": "72 h, tissue Blood, time 3 day", "result": 0.17, "unit": "%"},
      {"measurement": "ERYTHROCYTE COUNT", "setting": "72 h, tissue Blood, time 3 day", "result": 5.34, "unit": "x10E6/uL"},
      {"measurement": "HEMATOCRIT", "setting": "72 h, tissue Blood, time 3 day", "result": 33.62, "unit": "%"},
      {"measurement": "HEMOGLOBIN", "setting": "72 h, tissue Blood, time 3 day", "result": 13.17, "unit": "G/DL"},
      {"measurement": "LEUKOCYTE COUNT", "setting": "72 h, tissue Blood, time 3 day", "result": 12.37, "unit": "x10E3/uL"},
      {"measurement": "LYMPHOCYTE", "setting": "72 h, tissue Blood, time 3 day", "result": 90.33, "unit": "%"},
      {"measurement": "MEAN CORPUSCULAR HEMOGLOBIN", "setting": "72 h, tissue Blood, time 3 day", "result": 24.65, "unit": "pg"},
      {"measurement": "MEAN CORPUSCULAR HEMOGLOBIN CONCENTRATION", "setting": "72 h, tissue Blood, time 3 day", "result": 39.18, "unit": "G/DL"},
      {"measurement": "MEAN CORPUSCULAR VOLUME", "setting": "72 h, tissue Blood, time 3 day", "result": 62.95, "unit": "fL"},
      {"measurement": "MONOCYTE", "setting": "72 h, tissue Blood, time 3 day", "result": 1.5, "unit": "%"},
      {"measurement": "NEUTROPHIL", "setting": "72 h, tissue Blood, time 3 day", "result": 8, "unit": "%"},
      {"measurement": "NUCLEATED RED BLOOD CELLS", "setting": "72 h, tissue Blood, time 3 day", "result": "0 /100WBC"},
      {"measurement": "ALANINE AMINOTRANSFERASE", "setting": "72 h, time 3 day", "result": 56.67, "unit": "u/L"},
      {"measurement": "ALBUMIN", "setting": "72 h, time 3 day", "result": 4.55, "unit": "G/DL"},
      {"measurement": "ALKALINE PHOSPHATASE", "setting": "72 h, time 3 day", "result": 305.17, "unit": "u/L"},
      {"measurement": "ASPARTATE AMINOTRANSFERASE", "setting": "72 h, time 3 day", "result": 96.5, "unit": "u/L"},
      {"measurement": "BLOOD UREA NITROGEN", "setting": "72 h, time 3 day", "result": 13.5, "unit": "mg/dL"},
      {"measurement": "CARBON DIOXIDE", "setting": "72 h, time 3 day", "result": 31, "unit": "mmol/L"},
      {"measurement": "CHLORIDE", "setting": "72 h, time 3 day", "result": 101.67, "unit": "MEQ/L"},
      {"measurement": "CHOLESTEROL", "setting": "72 h, time 3 day", "result": 75.83, "unit": "mg/dL"},
      {"measurement": "CREATINE PHOSPHOKINASE", "setting": "72 h, time 3 day", "result": 345.67, "unit": "u/L"},
      {"measurement": "CREATININE", "setting": "72 h, time 3 day", "result": 0.28, "unit": "mg/dL"},
      {"measurement": "GLUCOSE", "setting": "72 h, time 3 day", "result": 142.5, "unit": "mg/dL"},
      {"measurement": "LACTATE DEHYDROGENASE", "setting": "72 h, time 3 day", "result": 136.67, "unit": "u/L"},
      {"measurement": "LIPASE", "setting": "72 h, time 3 day", "result": 10.17, "unit": "u/L"},
      {"measurement": "POTASSIUM", "setting": "72 h, time 3 day", "result": 5.41, "unit": "MEQ/L"},
      {"measurement": "SODIUM", "setting": "72 h, time 3 day", "result": 146.7, "unit": "MEQ/L"},
      {"measurement": "TOTAL BILIRUBIN", "setting": "72 h, time 3 day", "result": 0.13, "unit": "mg/dL"},
      {"measurement": "TOTAL PROTEIN", "setting": "72 h, time 3 day", "result": 6.65, "unit": "G/DL"},
      {"measurement": "URIC ACID", "setting": "72 h, time 3 day", "result": 0.77, "unit": "mg/dL"},
      {"measurement": "ABSOLUTE BASOPHIL", "setting": "[1]", "result": 0, "unit": "CELLS/uL"},
      {"measurement": "ABSOLUTE EOSINOPHIL", "setting": "[1]", "result": 26.33, "unit": "CELLS/uL"},
      {"measurement": "ABSOLUTE LYMPHOCYTE", "setting": "[1]", "result": 10004.33, "unit": "CELLS/uL"},
      {"measurement": "ABSOLUTE MONOCYTE", "setting": "[1]", "result": 141.33, "unit": "CELLS/uL"},
      {"measurement": "ABSOLUTE SEGMENTED NEUTROPHIL", "setting": "[1]", "result": 1161.33, "unit": "CELLS/uL"},
      {"measurement": "BASOPHIL", "setting": "[1]", "result": 0, "unit": "%"},
      {"measurement": "EOSINOPHIL", "setting": "[1]", "result": 0.33, "unit": "%"},
      {"measurement": "ERYTHROCYTE COUNT", "setting": "[1]", "result": 5.5, "unit": "x10E6/uL"},
      {"measurement": "HEMATOCRIT", "setting": "[1]", "result": 34.8, "unit": "%"},
      {"measurement": "HEMOGLOBIN", "setting": "[1]", "result": 13.17, "unit": "G/DL"},
      {"measurement": "LEUKOCYTE COUNT", "setting": "[1]", "result": 11.33, "unit": "x10E3/uL"},
      {"measurement": "LYMPHOCYTE", "setting": "[1]", "result": 87.83, "unit": "%"},
      {"measurement": "MEAN CORPUSCULAR HEMOGLOBIN", "setting": "[1]", "result": 23.95, "unit": "pg"},
      {"measurement": "MEAN CORPUSCULAR HEMOGLOBIN CONCENTRATION", "setting": "[1]", "result": 37.83, "unit": "G/DL"},
      {"measurement": "MEAN CORPUSCULAR VOLUME", "setting": "[1]", "result": 63.28, "unit": "fL"},
      {"measurement": "MONOCYTE", "setting": "[1]", "result": 1.17, "unit": "%"},
      {"measurement": "NEUTROPHIL", "setting": "[1]", "result": 10.67, "unit": "%"},
      {"measurement": "NUCLEATED RED BLOOD CELLS", "setting": "[1]", "result": "0 /100WBC"},
      {"measurement": "PLATELET COUNT", "setting": "[1]", "result": 1035.33, "unit": "x10E3/uL"},
      {"measurement": "ALANINE AMINOTRANSFERASE", "setting": "120 h, time 5 day", "result": 36, "unit": "u/L"},
      {"measurement": "ALBUMIN", "setting": "120 h, time 5 day", "result": 4.63, "unit": "G/DL"},
      {"measurement": "ALKALINE PHOSPHATASE", "setting": "120 h, time 5 day", "result": 266.33, "unit": "u/L"},
      {"measurement": "ASPARTATE AMINOTRANSFERASE", "setting": "120 h, time 5 day", "result": 71.67, "unit": "u/L"},
      {"measurement": "BLOOD UREA NITROGEN", "setting": "120 h, time 5 day", "result": 11.33, "unit": "mg/dL"},
      {"measurement": "CARBON DIOXIDE", "setting": "120 h, time 5 day", "result": 30.17, "unit": "mmol/L"},
      {"measurement": "CHLORIDE", "setting": "120 h, time 5 day", "result": 100.83, "unit": "MEQ/L"},
      {"measurement": "CHOLESTEROL", "setting": "120 h, time 5 day", "result": 70.33, "unit": "mg/dL"},
      {"measurement": "CREATINE PHOSPHOKINASE", "setting": "120 h, time 5 day", "result": 226.17, "unit": "u/L"},
      {"measurement": "CREATININE", "setting": "120 h, time 5 day", "result": 0.27, "unit": "mg/dL"},
      {"measurement": "GLUCOSE", "setting": "120 h, time 5 day", "result": 147.83, "unit": "mg/dL"},
      {"measurement": "LACTATE DEHYDROGENASE", "setting": "120 h, time 5 day", "result": 111.67, "unit": "u/L"},
      {"measurement": "LIPASE", "setting": "120 h, time 5 day", "result": 8, "unit": "u/L"},
      {"measurement": "POTASSIUM", "setting": "120 h, time 5 day", "result": 5.14, "unit": "MEQ/L"},
      {"measurement": "SODIUM", "setting": "120 h, time 5 day", "result": 145.48, "unit": "MEQ/L"},
      {"measurement": "TOTAL BILIRUBIN", "setting": "120 h, time 5 day", "result": 0.1, "unit": "mg/dL"},
      {"measurement": "TOTAL PROTEIN", "setting": "120 h, time 5 day", "result": 6.53, "unit": "G/DL"},
      {"measurement": "URIC ACID", "setting": "120 h, time 5 day", "result": 0.52, "unit": "mg/dL"}
    ]}
  ]
}
